Reference: article PMC6672008, “Small molecule degraders of the hepatitis C virus protease reduce susceptibility to resistance mutations” (Nature Communications, 2019)
Several values for one entry are separate records, joined by “and”; a condition that tells them apart may be missing. Equal values may be shown once. Entries after “also recorded” stand apart in the source; their conditions may differ. Read-outs that look alike come from different tables or passages of the source.

Columns and labels:
HCV NS3 [1] = molecular target: T1, HCV NS3 (Hepatitis C virus genotype 2a, UniProt Q99IB8); type: cell-based; conditions: percentage of DMSO-treated control, 1000 nM (legend; picture prints 500nM)
CRBN [2] = molecular target: T2, CRBN (Homo sapiens, UniProt Q96SW2); assay: Competitive displacement assay for cellular CRBN engagement (rescue of dBET6-mediated BRD4BD2-eGFP degradation); type: cell-based; conditions: co-treated with 100 nM dBET6, 5 h
[3] = Cytotoxicity assay (CellTiter-Glo, 24 h); type: cell-based; conditions: human, CC50 (50% loss of viability)
[4] = molecular target: HCV NS3-eGFP protein fusion (Hepatitis C virus genotype 2a, UniProt Q99IB8); type: cell-based; conditions: for DC50: 4 h treatment
HCV-JFH1-ad = assay: microbe, parasite or virus in culture; type: cell-based, hepatitis C virus
DDB1∆B-CRBN = DDB1∆B-CRBN (Homo sapiens, UniProt Q96SW2); assay: CRBN-binding assay (fluorescence polarization, displacement of Atto565-lenalidomide); conditions: fluorescence polarization competition
Protocol: Measurement of compounds binding to CRBN was performed by fluorescence polarization. […] Compounds were dispensed using a D300e Digital Dispenser (HP), normalized to 1% DMSO, and incubated for 60 min at room temperature. The change in fluorescence polarization was monitored using a PHERAstar FS microplate reader (BMG Labtech) for 20 min in 200 s cycles. […]
Increasing concentrations of compounds were titrated to preformed DDB1∆B-CRBN-lenalidomideAtto565 complex. Data are presented as means normalized to DMSO ± standard deviation of n = 4 technical replicates. […]
d Measurement of NS3/4A protease inhibition in vitro. Cell lysates containing the endogenous NS3/4A protease were prepared from cells stably expressing an HCV […]
subgenomic replicon. […]

HCV NS3 [5] = molecular target: T1, HCV NS3; type: cell-based; conditions: 1000 nM, 4 h
HCV NS3 [6] = type: cell-based, hepatitis C virus; conditions: 1000 nM, 4 h; selectivity
HCV-NS3-V55A = assay: microbe, parasite or virus in culture; type: cell-based, hepatitis C virus
wildtype HCV-Jc1 = assay: microbe, parasite or virus in culture; type: cell-based, hepatitis C virus
CRBN [7] = molecular target: T2, CRBN; assay: Cellular thermal shift assay for CRBN engagement (HEK293T cells); type: cell-based; conditions: 1 h at 37 °C, heated at 61 °C, dose-response
HCV-NS3-A156S = assay: microbe, parasite or virus in culture; type: cell-based, hepatitis C virus
[8] = average value reported, averaged from n = 2
[9] = single experiments, individual experiments
[10] = 500 nM compound + 500 nM lenalidomide, 4 h, Supplementary Fig. 4c
[11] = 500 nM compound + 5000 nM lenalidomide, 4 h, Supplementary Fig. 4c
[12] = 500 nM compound + DMSO, 4 h, Supplementary Fig. 4c
[13] = read-out: NS3-eGFP degradation DC50, average value reported, average of n ≥ 2 independent experiments
[14] = read-out: NS3-eGFP degradation DC50, single experiments, individual experiments (source data)
[15] = Hepatitis C virus, Huh7.5, read-out: antiviral IC50 (50% reduction in viral titers), average value reported, Huh7.5, MOI 0.1, treated 24 to 48 h post-infection, average of n ≥ 2 experiments
[16] = read-out: antiviral IC50 (50% reduction in viral titers), single experiments, Huh7.5, MOI 0.1, treated 24 to 48 h post-infection, individual experiments
[17] = 1000 nM compound + 5000 nM lenalidomide, 4 h, Fig. 2d
[18] = 1000 nM compound + DMSO, 4 h, Fig. 2d

For `CCC[C@H](NC(=O)[C@@H]1[C@H]2CCC[C@H]2CN1C(=O)[C@@H](NC(=O)[C@@H](NC(=O)c1cnc(C(=O)NCCCCCCNc2cccc3c2CN(C2CCC(=O)NC2=O)C3=O)cn1)C1CCCCC1)C(C)(C)C)C(=O)C(=O)NC1CC1` (some centres unmarked) [DGY-03-081], the “relative NS3 levels (normalized to GAPDH), CRBN-/- cells, average” value (HCV NS3 [1]; Huh7.5 CRBN-/-, HCV-JFH1-ad MOI 0.1, 24 to 48 h post-infection) was 101%, the “relative NS3 levels (normalized to GAPDH), wildtype cells, average” value (HCV NS3 [1]; wildtype Huh7.5, HCV-JFH1-ad MOI 0.1, 24 to 48 h post-infection) was 50% and the EC50 (CRBN [2]) was 576 nM. The CC50 at 24 h [3, 8] was greater than 40000 nM, the CC50 at 24 h [3, 9] was greater than 40000 nM and the “NS3-eGFP/mCherry ratio normalized to DMSO, average” value [4, 10] was 0.71. The “NS3-eGFP/mCherry ratio normalized to DMSO, single experiments” value [4, 10] was 0.72 and 0.71, the “NS3-eGFP/mCherry ratio normalized to DMSO, average” value [4, 11] was 0.84 and the “NS3-eGFP/mCherry ratio normalized to DMSO, single experiments” value [4, 11] was 0.85 and 0.83. For the same compound, the “NS3-eGFP/mCherry ratio normalized to DMSO, average” value [4, 12] was 0.65, the “NS3-eGFP/mCherry ratio normalized to DMSO, single experiments” value [4, 12] was 0.65 and 0.64 and the DC50 [4, 13] was 669 nM. The DC50 [4, 14] was 642 nM and 695 nM, the IC50 (HCV-JFH1-ad; [15]) was 3070 nM and the IC50 (HCV-JFH1-ad; Hepatitis C virus, Huh7.5, read-out: antiviral IC50 (50% reduction in viral titers), single experiments, Huh7.5, MOI 0.1, treated 24 to 48 h post-infection, individual experiments) was 3300 nM. The IC50 (HCV-JFH1-ad; [16]) was 2840 nM.

With `CCC[C@H](NC(=O)[C@@H]1[C@H]2CCC[C@H]2CN1C(=O)[C@@H](NC(=O)[C@@H](NC(=O)c1cnc(C(=O)NCCOCCOCCOc2cc3c4c(cccc4c2)C(=O)N(C2CCC(=O)N(C)C2=O)C3=O)cn1)C1CCCCC1)C(C)(C)C)C(=O)C(=O)NC1CC1` (some centres unmarked) [DGY-08-097-BUMP] the “binding to CRBN (in words)” value (DDB1∆B-CRBN) was “Neither DGY-04-035-BUMP nor DGY-08-097-BUMP exhibit detectable binding to CRBN; also recorded: loss of CRBN-binding”, the CC50 at 24 h [3, 8] was greater than 40000 nM and the CC50 at 24 h [3, 9] was greater than 40000 nM. The “change of HCV NS3 abundance vs DMSO (in words)” value (HCV NS3 [5]) was “No significant degradation of HCV NS3 or any other cellular protein; also recorded: unaffected”, the “NS3-eGFP/mCherry ratio normalized to DMSO, average” value [4, 17] was 0.96 and the “NS3-eGFP/mCherry ratio normalized to DMSO, single experiments” value [4, 17] was 0.92 and 1.00. For the same compound, the “NS3-eGFP/mCherry ratio normalized to DMSO, average” value [4, 18] was 0.92, the “NS3-eGFP/mCherry ratio normalized to DMSO, single experiments” value [4, 18] was 0.92 and the “degradation of HCV NS3 in the transient assay (in words)” value ([4]; 4 h, increasing concentrations) was “neither compound induced degradation of HCV NS3”.

`CCC[C@H](NC(=O)[C@@H]1[C@H]2CCC[C@H]2CN1C(=O)[C@@H](NC(=O)[C@@H](NC(=O)c1cnc(C(=O)NCCOCCOCCOc2cc3c4c(cccc4c2)C(=O)N(C2CCC(=O)NC2=O)C3=O)cn1)C1CCCCC1)C(C)(C)C)C(=O)C(=O)NC1CC1` (some centres unmarked) [DGY-08-097] gave an EC50 (CRBN [2]) of 703 nM, a CC50 at 24 h [3, 8] greater than 40000 nM and a CC50 at 24 h [3, 9] greater than 40000 nM. For the same compound, the “degradation of IMiDs neo-substrates IKZF1 and IKZF3” value (HCV NS3 [6]) was “no degradation”, the “other proteins significantly affected (of ~8700 quantified)” value (HCV NS3 [6]) was “no other protein of the ~8700 quantified was observed to be significantly affected” and the IC50 (HCV-NS3-V55A; Hepatitis C virus, Huh7.5, read-out: antiviral IC50, NS3-V55A virus, average value reported, Huh7.5, MOI 0.1, treated 24 to 48 h post-infection) was 508 nM. The IC50 (HCV-NS3-V55A; Hepatitis C virus, Huh7.5, read-out: antiviral IC50, NS3-V55A virus, single experiments, Huh7.5, MOI 0.1, treated 24 to 48 h post-infection) was 403 nM, the IC50 (HCV-NS3-V55A; read-out: antiviral IC50, NS3-V55A virus, single experiments, Huh7.5, MOI 0.1, treated 24 to 48 h post-infection) was 380 nM and 742 nM and the “NS3-eGFP/mCherry ratio normalized to DMSO, average” value [4, 17] was 0.60. For the same compound, the “NS3-eGFP/mCherry ratio normalized to DMSO, single experiments” value [4, 17] was 0.62 and 0.58, the “NS3-eGFP/mCherry ratio normalized to DMSO, average” value [4, 18] was 0.24 and the “NS3-eGFP/mCherry ratio normalized to DMSO, single experiments” value [4, 18] was 0.23 and 0.25. For the same compound, the “concentrations at which a hook effect was observed in the transient NS3 degradation assay” value ([4]; 4 h) was “above 1000 nM”, the DC50 [4, 13] was 50 nM and the DC50 [4, 14] was 51 nM and 49 nM and 46 nM and 54 nM. The IC50 (wildtype HCV-Jc1; Hepatitis C virus, Huh7.5, read-out: antiviral IC50, wildtype virus, average value reported, Huh7.5, MOI 0.1, treated 24 to 48 h post-infection) was 558 nM, the IC50 (wildtype HCV-Jc1; Hepatitis C virus, Huh7.5, read-out: antiviral IC50, wildtype virus, single experiments, Huh7.5, MOI 0.1, treated 24 to 48 h post-infection) was 630 nM and the IC50 (wildtype HCV-Jc1; read-out: antiviral IC50, wildtype virus, single experiments, Huh7.5, MOI 0.1, treated 24 to 48 h post-infection) was 417 nM and 627 nM. The IC50 (HCV-JFH1-ad; [15]) was 748 nM, the IC50 (HCV-JFH1-ad; [16]) was 706 nM and 627 nM and 425 nM and 1230 nM and the “stabilization of CRBN in cellular thermal shift assay” value (CRBN [7]) was “concentration-dependent stabilization of CRBN”. For the same compound, the IC50 (HCV-NS3-A156S; Hepatitis C virus, Huh7.5, read-out: antiviral IC50, NS3-A156S virus, average value reported, Huh7.5, MOI 0.1, treated 24 to 48 h post-infection) was 1560 nM, the IC50 (HCV-NS3-A156S; Hepatitis C virus, Huh7.5, read-out: antiviral IC50, NS3-A156S virus, single experiments, Huh7.5, MOI 0.1, treated 24 to 48 h post-infection) was 2020 nM and the “change in antiviral potency, NS3-A156S vs wildtype” value (HCV-NS3-A156S; ratio of IC50 values) was 3 fold. The IC50 (HCV-NS3-A156S; read-out: antiviral IC50, NS3-A156S virus, single experiments, Huh7.5, MOI 0.1, treated 24 to 48 h post-infection) was 1110 nM.
